US20150202172A1, “NOVEL METHOD OF USE” (Glaxo Group Limited, priority 2014, published 2015)
“And” between values parts separate entries of the source, which are not always exact repeats. Equal entries are not always repeated.

Key:
Type in all cases: in vivo, human
[1] = test system: patients with Severe Refractory Chronic Hand Eczema (CHE); assay: Clinical trial simulation (longitudinal dose response model): PGA score at end of treatment; settings: 30 mg
Protocol: (§1) In clinical studies, efficacy was measured using PGA score and modified total lesion signs and symptoms (mTLSS) at various times during and post treatment. PGA scores over time were chosen for this analysis because PGA scores were the primary endpoint in the Phase III studies and were collected at more time points than the mTLSS. The PGA was graded according to 5 point scale (clear, almost clear, mild disease, moderate disease, severe disease). The mTLSS severity score was graded 0 to 3 for 7 parameters.
(§2) For the Physician Global Assessment (PGA), a general description of CHE severity, which is a well recognized scale is shown below in Table 7 for clarification purposes.

[2] = test system: patients with Severe Refractory Chronic Hand Eczema (CHE); assay: Clinical trial simulation (longitudinal dose response model): time from initial dose to onset of effect; settings: for Time to Onset of Effect (a Drop of 2 or More Points in PGA in 30% of Subjects): 30 mg
Protocol: (§3) In reviewing the data to make these determinations, all available PGA scores observed (not including scores derived from missing data such as last observation carried forward (LOCF) including those at baseline, every 4 weeks during treatment, and every 4 to 8 weeks after cessation of treatment for up to 72 weeks post treatment from the various clinical trials were used to develop a longitudinal dose response model.
as §1
A >2 weeks time to onset is considered clinically relevant.

[3] = test system: patients with Severe Refractory Chronic Hand Eczema (CHE); assay: Clinical trial simulation (longitudinal dose response model): no relapse (PGA ≠ 5) by 6 months post treatment; settings: for Proportion of Responders Who Did Not Relapse (PGA ≠ 5) 6 months Post Treatment / Proportion of Subjects with PGA = 1 at end of treatment who did not relapse (PGA ≠ 5) 6 Months Post Treatment / Proportion of Subjects with PGA = 2 at the end of treatment who did not relapse (PGA ≠ 5) 6 Months Post Treatment / Proportion of Subjects with PGA = 3 at the end of treatment who did not relapse (PGA ≠ 5) 6 Months Post Treatment / Proportion of Subjects with PGA = 1 Who Did Not Relapse (PGA ≠ 5) 6 Months Post Treatment / Proportion of Subjects with PGA = 2 Who Did Not Relapse (PGA ≠ 5) 6 Months Post Treatment / Proportion of Subjects with PGA = 3 Who Did Not Relapse (PGA ≠ 5) 6 Months Post Treatment: 30 mg
Protocol: as §3, §1, §2

## CC1=C(/C=C/C(C)=C\C=C\C(C)=C\C(=O)O)C(C)(C)CCC1 [Alitretinoin, 9-cis isomer of retinoic acid (RA)]
[1]; age 30 yr
  Proportion of Responders (PGA = 1 or 2) at End of Treatment: 33.9 (26, 42) %
  Proportion of Subjects (PGA = 2) at End of Treatment: 22.9 (16, 30) %
  Proportion of Subjects (PGA = 3) at End of Treatment: 28.4 (21, 36) %
[1]; age 50 yr
  Proportion of Responders (PGA = 1 or 2) at End of Treatment: 41.1 (33, 49) %
  Proportion of Subjects (PGA = 1) at End of Treatment: 14.9 (9, 21) %
  Proportion of Subjects (PGA = 2) at End of Treatment: 26.3 (20, 34) %
  Proportion of Subjects (PGA = 3) at End of Treatment: 28.3 (20, 35) %
[1]; age 65 yr
  Proportion of Responders (PGA = 1 or 2) at End of Treatment: 48.0 (40, 56) %
  Proportion of Subjects (PGA = 1) at End of Treatment: 19.3 (13, 26) %
  Proportion of Subjects (PGA = 2) at End of Treatment: 28.7 (22, 36) %
  Proportion of Subjects (PGA = 3) at End of Treatment: 27.1 (19, 35) %
[1]; age 75 yr
  Proportion of Responders (PGA = 1 or 2) at End of Treatment: 53.0 (45, 62) %
  Proportion of Subjects (PGA = 1) at End of Treatment: 22.8 (16, 30) %
  Proportion of Subjects (PGA = 2) at End of Treatment: 30.2 (23, 37) %
  Proportion of Subjects (PGA = 3) at End of Treatment: 25.8 (18, 33) %
[1]; duration of treatment 4 weeks
  Proportion of Responders (PGA = 1 or 2) at End of Treatment: 4.3 (1, 8) %
  Proportion of Subjects (PGA = 1) at End of Treatment: 1.3 (1, 2) %
  Proportion of Subjects (PGA = 2) at End of Treatment: 3.7 (1, 7) %
  Proportion of Subjects (PGA = 3) at End of Treatment: 10.5 (5, 16) %
[1]; duration of treatment 8 weeks
  Proportion of Responders (PGA = 1 or 2) at End of Treatment: 15.2 (10, 21) %
  Proportion of Subjects (PGA = 1) at End of Treatment: 3.6 (1, 7) %
  Proportion of Subjects (PGA = 2) at End of Treatment: 11.7 (7, 17) %
  Proportion of Subjects (PGA = 3) at End of Treatment: 22.5 (16, 29) %
[1]; duration of treatment 12 weeks
  Proportion of Responders (PGA = 1 or 2) at End of Treatment: 23.7 (16, 31) %
  Proportion of Subjects (PGA = 1) at End of Treatment: 6.6 (3, 11) %
  Proportion of Subjects (PGA = 2) at End of Treatment: 17.1 (11, 24) %
  Proportion of Subjects (PGA = 3) at End of Treatment: 26.4 (19, 34) %
[1]; duration of treatment 16 weeks
  Proportion of Responders (PGA = 1 or 2) at End of Treatment: 30.2 (23, 38) %
  Proportion of Subjects (PGA = 1) at End of Treatment: 9.2 (5, 14) %
  Proportion of Subjects (PGA = 2) at End of Treatment: 21.0 (14, 28) %
  Proportion of Subjects (PGA = 3) at End of Treatment: 27.7 (21, 35) %
[1]; duration of treatment 20 weeks
  Proportion of Responders (PGA = 1 or 2) at End of Treatment: 35.4 (28, 43) %
  Proportion of Subjects (PGA = 1) at End of Treatment: 11.9 (7, 17) %
  Proportion of Subjects (PGA = 2) at End of Treatment: 23.6 (17, 31) %
  Proportion of Subjects (PGA = 3) at End of Treatment: 28.0 (21, 35) %
[1]; duration of treatment 24 weeks
  Proportion of Responders (PGA = 1 or 2) at End of Treatment: 40.4 (33, 48) %
  Proportion of Subjects (PGA = 1) at End of Treatment: 14.7 (9, 21) %
  Proportion of Subjects (PGA = 2) at End of Treatment: 25.7 (19, 33) %
  Proportion of Subjects (PGA = 3) at End of Treatment: 28.2 (21, 35) %
[2]; 65 or 75 year old compared with a 30 year old
  faster time to onset of effect: > 2 weeks
[2]; age 30 yr
  Time to Onset of Effect (a Drop of 2 or More Points in PGA in 30% of Subjects): 58 (49, 70) Days
[2]; age 50 yr
  Time to Onset of Effect (a Drop of 2 or More Points in PGA in 30% of Subjects): 49 (42, 56) Days
[2]; age 65 yr
  Time to Onset of Effect (a Drop of 2 or More Points in PGA in 30% of Subjects): 43 (35, 49) Days
[2]; age 75 yr
  Time to Onset of Effect (a Drop of 2 or More Points in PGA in 30% of Subjects): 39 (35, 42) Days
[3]; PGA score=1 or 2
  subjects who responded (PGA score=1 or 2) who would not return to severe disease within 6 months post treatment: > 83%
[3]; PGA=1 or PGA=2 at end of treatment (individually)
  difference between a 75 year old and 30 year old in the proportion of patients who did not relapse (PGA score≠5) 6 months after treatment: 10%
[3]; age 30 yr
  Proportion of Responders Who Did Not Relapse (PGA ≠ 5) 6 months Post Treatment: 79% and 78.7 (67, 90) %
  Proportion of Subjects with PGA = 1 at end of treatment who did not relapse (PGA ≠ 5) 6 Months Post Treatment: 77.7 (56, 92) %
  Proportion of Subjects with PGA = 2 at the end of treatment who did not relapse (PGA ≠ 5) 6 Months Post Treatment: 77.6 (62, 91) %
  Proportion of Subjects with PGA = 3 at the end of treatment who did not relapse (PGA ≠ 5) 6 Months Post Treatment: 76.8 (63, 89) %
[3]; age 50 yr
  Proportion of Responders Who Did Not Relapse (PGA ≠ 5) 6 months Post Treatment: 83.2 (73, 92) %
  Proportion of Subjects with PGA = 1 at end of treatment who did not relapse (PGA ≠ 5) 6 Months Post Treatment: 82.4 (65, 94) %
  Proportion of Subjects with PGA = 2 at the end of treatment who did not relapse (PGA ≠ 5) 6 Months Post Treatment: 82.6 (70, 93) %
  Proportion of Subjects with PGA = 3 at the end of treatment who did not relapse (PGA ≠ 5) 6 Months Post Treatment: 81.1 (68, 93) %
[3]; age 65 yr
  Proportion of Responders Who Did Not Relapse (PGA ≠ 5) 6 months Post Treatment: 87% and 86.6 (78, 94) %
  Proportion of Subjects with PGA = 1 at end of treatment who did not relapse (PGA ≠ 5) 6 Months Post Treatment: 86.0 (73, 95) %
  Proportion of Subjects with PGA = 2 at the end of treatment who did not relapse (PGA ≠ 5) 6 Months Post Treatment: 86.0 (74, 96) %
  Proportion of Subjects with PGA = 3 at the end of treatment who did not relapse (PGA ≠ 5) 6 Months Post Treatment: 84.3 (72, 95) %
[3]; age 75 yr
  Proportion of Responders Who Did Not Relapse (PGA ≠ 5) 6 months Post Treatment: 89% and 88.7 (81, 95) %
  Proportion of Subjects with PGA = 1 at end of treatment who did not relapse (PGA ≠ 5) 6 Months Post Treatment: 88.1 (76, 96) %
  Proportion of Subjects with PGA = 2 at the end of treatment who did not relapse (PGA ≠ 5) 6 Months Post Treatment: 88.0 (78, 96) %
  Proportion of Subjects with PGA = 3 at the end of treatment who did not relapse (PGA ≠ 5) 6 Months Post Treatment: 86.5 (74, 96) %
[3]; duration of treatment 4 weeks
  Proportion of Responders Who Did Not Relapse (PGA ≠ 5) 6 months Post Treatment: 79.2 (68, 89) %
  Proportion of Subjects with PGA = 1 Who Did Not Relapse (PGA ≠ 5) 6 Months Post Treatment: 79.8 (61, 93) %
  Proportion of Subjects with PGA = 2 Who Did Not Relapse (PGA ≠ 5) 6 Months Post Treatment: 77.9 (64, 91) %
  Proportion of Subjects with PGA = 3 Who Did Not Relapse (PGA ≠ 5) 6 Months Post Treatment: 76.4 (62, 88) %
[3]; duration of treatment 8 weeks
  Proportion of Responders Who Did Not Relapse (PGA ≠ 5) 6 months Post Treatment: 80.7 (70, 90) %
  Proportion of Subjects with PGA = 1 Who Did Not Relapse (PGA ≠ 5) 6 Months Post Treatment: 81.0 (63, 94) %
  Proportion of Subjects with PGA = 2 Who Did Not Relapse (PGA ≠ 5) 6 Months Post Treatment: 79.5 (67, 92) %
  Proportion of Subjects with PGA = 3 Who Did Not Relapse (PGA ≠ 5) 6 Months Post Treatment: 77.8 (65, 89) %
[3]; duration of treatment 12 weeks
  Proportion of Responders Who Did Not Relapse (PGA ≠ 5) 6 months Post Treatment: 82.3 (68, 95) %
  Proportion of Subjects with PGA = 1 Who Did Not Relapse (PGA ≠ 5) 6 Months Post Treatment: 81.9 (64, 94) %
  Proportion of Subjects with PGA = 2 Who Did Not Relapse (PGA ≠ 5) 6 Months Post Treatment: 80.8 (68, 92) %
  Proportion of Subjects with PGA = 3 Who Did Not Relapse (PGA ≠ 5) 6 Months Post Treatment: 79.1 (67, 90) %
[3]; duration of treatment 16 weeks
  Proportion of Responders Who Did Not Relapse (PGA ≠ 5) 6 months Post Treatment: 83.3 (72, 94) %
  Proportion of Subjects with PGA = 1 Who Did Not Relapse (PGA ≠ 5) 6 Months Post Treatment: 82.5 (66, 94) %
  Proportion of Subjects with PGA = 2 Who Did Not Relapse (PGA ≠ 5) 6 Months Post Treatment: 81.7 (69, 92) %
  Proportion of Subjects with PGA = 3 Who Did Not Relapse (PGA ≠ 5) 6 Months Post Treatment: 80.1 (67, 91) %
[3]; duration of treatment 20 weeks
  Proportion of Responders Who Did Not Relapse (PGA ≠ 5) 6 months Post Treatment: 83.9 (72, 94) %
  Proportion of Subjects with PGA = 1 Who Did Not Relapse (PGA ≠ 5) 6 Months Post Treatment: 83.1 (67, 94) %
  Proportion of Subjects with PGA = 2 Who Did Not Relapse (PGA ≠ 5) 6 Months Post Treatment: 82.6 (69, 94) %
  Proportion of Subjects with PGA = 3 Who Did Not Relapse (PGA ≠ 5) 6 Months Post Treatment: 80.9 (68, 92) %
[3]; duration of treatment 24 weeks
  Proportion of Responders Who Did Not Relapse (PGA ≠ 5) 6 months Post Treatment: 84.4 (75, 93) %
  Proportion of Subjects with PGA = 1 Who Did Not Relapse (PGA ≠ 5) 6 Months Post Treatment: 83.7 (67, 94) %
  Proportion of Subjects with PGA = 2 Who Did Not Relapse (PGA ≠ 5) 6 Months Post Treatment: 83.3 (70, 95) %
  Proportion of Subjects with PGA = 3 Who Did Not Relapse (PGA ≠ 5) 6 Months Post Treatment: 81.6 (68, 92) %
